Measured values from patent US4429127A, “Quinoline carboxylic acid derivative” (Kyorin Pharmaceutical Co., Ltd., priority 1981, dated 1984).
Values after ≈ are worked out from the molar mass of the structure shown. Read-outs that look alike come from different tables or passages of the source.

Assays:
P. morganii IID602 = assay: In vitro antibacterial activity (MIC, agar dilution); assay type: cell-based; settings: Morganella morganii, inoculum 10^8 cells/ml
Method: (§1) The minimum inhibitory concentration (MIC) of the compound (I) was determined by an agar dilution technique (the standard method of Japan Society of Chemotherapy) against standard strains of gram-positive and gram-negative bacteria.
(§2) Inoculum size: 10^8 cells/ml

[1] = system: Serratia marcescens IID618; assay: as above; assay type: cell-based; settings: inoculum 10^8 cells/ml
Method: as §1, §2

Shigella sonnei IID969 = assay: as above; assay type: cell-based; settings: inoculum 10^8 cells/ml
Method: as §1, §2

S. pneumoniae IID552 = assay: as above; assay type: cell-based; settings: Streptococcus pneumoniae
Method: as §1, §2

S. faecalis IID682 = assay: as above; assay type: cell-based; settings: Enterococcus faecalis
Method: as §1, §2

P. mirabilis IID994 = assay: as above; assay type: cell-based; settings: Proteus mirabilis, inoculum 10^8 cells/ml
Method: as §1, §2

[2] = system: Acinetobacter enitratus IID876; assay: as above; assay type: cell-based; settings: inoculum 10^8 cells/ml
Method: as §1, §2

[3] = system: Streptococcus pyogenes IID692; assay: as above; assay type: cell-based
Method: as §1, §2

[4] = system: Alcaligenes faecalis 0104002; assay: as above; assay type: cell-based; settings: inoculum 10^8 cells/ml
Method: as §1, §2

S. pyogenes S-8 = assay: as above; assay type: cell-based; settings: Streptococcus pyogenes, S8
Method: as §1, §2

[5] = system: Yersinia enterocolitica IID981; assay: as above; assay type: cell-based; settings: inoculum 10^8 cells/ml
Method: as §1, §2

[6] = system: Pseudomonas aeruginosa V-1; assay: as above; assay type: cell-based; settings: V1
Method: as §1, §2

[7] = system: Staphylococcus aureus 209P; assay: as above; assay type: cell-based
Method: as §1, §2

E. coli NIHJ JC-2 = assay: as above; assay type: cell-based; settings: Escherichia coli, NIHJJC2
Method: as §1, §2

E. coli ATCC10536 = assay: as above; assay type: cell-based; settings: Escherichia coli
Method: as §1, §2

[8] = system: Haemophilus influenzae IID986; assay: as above; assay type: cell-based; settings: Haemophilus influenzae, IID986
Method: as §1, §2

[9] = system: Enterobacter cloacae IID977; assay: as above; assay type: cell-based; settings: inoculum 10^8 cells/ml
Method: as §1, §2

[10] = system: Klebsiella pneumoniae IFO3512; assay: as above; assay type: cell-based
Method: as §1, §2

Proteus vulgaris IFO3167 = assay: as above; assay type: cell-based
Method: as §1, §2

[11] = system: S. aureus IID670 (Terajima); assay: as above; assay type: cell-based; settings: Staphylococcus aureus
Method: as §1, §2

[12] = system: Bacillus subtilis PCI 219; assay: as above; assay type: cell-based; settings: PCI219
Method: as §1, §2

[13] = system: Citrobacter freundii IID976; assay: as above; assay type: cell-based; settings: inoculum 10^8 cells/ml
Method: as §1, §2

S. epidermidis IID866 = assay: as above; assay type: cell-based; settings: Staphylococcus epidermidis, inoculum 10^8 cells/ml
Method: as §1, §2

P. aeruginosa IFO12689 = assay: as above; assay type: cell-based; settings: Pseudomonas aeruginosa
Method: as §1, §2

[14] = system: Salmonella enteritidis IID604; assay: as above; assay type: cell-based; settings: Salmonella enterica
Method: as §1, §2

gram-negative bacteria [15] = assay: In vitro antibacterial activity against gram-negative bacteria (in words); assay type: cell-based
Method: as §1

gram-negative bacteria [16] = settings: background; cited from earlier work
E. coli ML4707 [17] = assay: In vivo antibacterial activity, systemic infection in mice; parameters: species or system mice (male, ICR); settings: Escherichia coli, ML4707, po, 168 h
Method: (§3) The in vivo antibacterial activity of the compound (I) was determined in systemic infection in mice. The systemic infections were produced in male mice ICR (body weight, 19±2 g) by inoculating intraperitoneally with Staphylococcus aureus Smith and E. coli ML4707. The compounds were administered orally in divided doses at 0 and 4 hrs. after infection. The therapeutic effect of drugs was judged from the number of mice surviving after 7 days of observation. A comparison of in vivo antibacterial activity was made on the basis of the […] effective dose (ED50) calculated by the method of Litchfield and Wilcoxon.

[18] = system: Staphylococcus aureus Smith; assay: as above; parameters: species or system mice (male, ICR); settings: Staphylococcus aureus, po, 168 h
Method: as §3

gram-positive bacteria [19] = settings: background; cited from earlier work
E. coli ML4707 [20] = assay: MIC against the infecting strain (Table 2); assay type: cell-based; settings: Escherichia coli, ML4707
Method: as §1

[21] = system: Staphylococcus aureus Smith; assay: MIC against the infecting strain (Table 2); assay type: cell-based; settings: Staphylococcus aureus
Method: as §1

Streptococcus spp. = assay: In vitro antibacterial activity against Streptococcus spp. (in words); assay type: cell-based
Method: as §1

gram-positive bacteria [22] = assay: In vitro antibacterial activity against gram-positive bacteria (in words); assay type: cell-based
Method: as §1

Compound: CCn1cc(C(=O)O)c(=O)c2cc(F)c(N3CCNCC3)c(F)c21 [Metabolite, 1-ethyl-6,8-difluoro-1,4-dihydro-4-oxo-7-(1-piperazinyl)quinoline-3-carboxylic acid]
- MIC (P. morganii IID602): 0.1 µg/mL (≈ 0.296 µM)
- MIC [1]: 0.1 µg/mL (≈ 0.296 µM)
- MIC (Shigella sonnei IID969): 0.05 µg/mL (≈ 0.148 µM)
- MIC (S. pneumoniae IID552; S. pneumoniae IID552, inoculum 10^8 cells/ml, read-out: MIC): 6.25 µg/mL (≈ 18.5 µM)
- MIC (S. faecalis IID682; S. faecalis IID682, inoculum 10^8 cells/ml, read-out: MIC): 3.13 µg/mL (≈ 9.28 µM)
- MIC (P. mirabilis IID994): 0.05 µg/mL (≈ 0.148 µM)
- MIC [2]: 0.78 µg/mL (≈ 2.31 µM)
- MIC ([3]; Streptococcus pyogenes IID692, inoculum 10^8 cells/ml, read-out: MIC): 3.13 µg/mL (≈ 9.28 µM)
- MIC [4]: 0.78 µg/mL (≈ 2.31 µM)
- MIC (S. pyogenes S-8; S. pyogenes S-8, inoculum 10^8 cells/ml, read-out: MIC): 12.5 µg/mL (≈ 37.1 µM)
- MIC [5]: 0.1 µg/mL (≈ 0.296 µM)
- MIC ([6]; Pseudomonas aeruginosa V-1, inoculum 10^8 cells/ml, read-out: MIC): 0.78 µg/mL (≈ 2.31 µM)
- MIC ([7]; Staphylococcus aureus 209P, inoculum 10^8 cells/ml, read-out: MIC): 0.78 µg/mL (≈ 2.31 µM)
- MIC (E. coli NIHJ JC-2; E. coli NIHJ JC-2, inoculum 10^8 cells/ml, read-out: MIC): 0.05 µg/mL (≈ 0.148 µM)
- MIC (E. coli ATCC10536; E. coli ATCC10536, inoculum 10^8 cells/ml, read-out: MIC): 0.05 µg/mL (≈ 0.148 µM)
- MIC [8]: 0.025 µg/mL (≈ 0.0741 µM)
- MIC [9]: 0.1 µg/mL (≈ 0.296 µM)
- MIC ([10]; Klebsiella pneumoniae IFO3512, inoculum 10^8 cells/ml, read-out: MIC): 0.05 µg/mL (≈ 0.148 µM)
- MIC (Proteus vulgaris IFO3167; Proteus vulgaris IFO3167, inoculum 10^8 cells/ml, read-out: MIC): 0.05 µg/mL (≈ 0.148 µM)
- MIC ([11]; S. aureus IID670 (Terajima), inoculum 10^8 cells/ml, read-out: MIC): 0.78 µg/mL (≈ 2.31 µM)
- MIC ([12]; Bacillus subtilis PCI 219, inoculum 10^8 cells/ml, read-out: MIC): 0.2 µg/mL (≈ 0.593 µM)
- MIC [13]: 0.1 µg/mL (≈ 0.296 µM)
- MIC (S. epidermidis IID866): 0.78 µg/mL (≈ 2.31 µM)
- MIC (P. aeruginosa IFO12689; P. aeruginosa IFO12689, inoculum 10^8 cells/ml, read-out: MIC): 1.56 µg/mL (≈ 4.62 µM)
- MIC ([14]; Salmonella enteritidis IID604, inoculum 10^8 cells/ml, read-out: MIC): 0.1 µg/mL (≈ 0.296 µM)
- Activity of the metabolite against gram-negative bacteria, in words (gram-negative bacteria [15]; general statement): superior activity against gram-negative bacteria

Compound: CCn1cc(C(=O)O)c(=O)c2ccc(C)nc21 [NA, Nalidixic acid]
- MIC (Shigella sonnei IID969): 1.56 µg/mL (≈ 6.72 µM)
- MIC (S. pneumoniae IID552; IID552): > 100 µg/mL
- MIC (S. faecalis IID682; IID682): > 100 µg/mL
- MIC ([3]; Streptococcus pyogenes, IID692): > 100 µg/mL
- MIC (S. pyogenes S-8): > 100 µg/mL
- MIC ([6]; Pseudomonas aeruginosa): 100 µg/mL (≈ 431 µM)
- MIC ([7]; Staphylococcus aureus, 209P): 100 µg/mL (≈ 431 µM)
- MIC (E. coli NIHJ JC-2): 3.13 µg/mL (≈ 13.5 µM)
- MIC (E. coli ATCC10536; ATCC10536): 3.13 µg/mL (≈ 13.5 µM)
- MIC [8]: 1.56 µg/mL (≈ 6.72 µM)
- MIC ([10]; Klebsiella pneumoniae, IFO3512): 1.56 µg/mL (≈ 6.72 µM)
- MIC (Proteus vulgaris IFO3167; Proteus vulgaris, IFO3167): 3.13 µg/mL (≈ 13.5 µM)
- MIC ([11]; IID670): > 100 µg/mL
- MIC ([12]; Bacillus subtilis): 6.25 µg/mL (≈ 26.9 µM)
- MIC (P. aeruginosa IFO12689; IFO12689): > 100 µg/mL
- MIC [14]: 12.5 µg/mL (≈ 53.8 µM)
- Antibacterial activity on gram-negative bacteria, in words (gram-negative bacteria [15]; in vitro): exerted antibacterial activity mainly on gram-negative bacteria
- Effectiveness in therapy of infections due to gram-negative bacteria, in words (gram-negative bacteria [16]): highly effective in the therapy of infections due to gram-negative bacteria
- ED50 (E. coli ML4707 [17]): 38.3 mg/kg
- ED50 [18]: 635 mg/kg
- Activity against most gram-positive bacteria, in words (gram-positive bacteria [19]): only weak activities against most gram-positive bacteria
- MIC (E. coli ML4707 [20]): 3.13 µg/mL (≈ 13.5 µM)
- MIC [21]: 25 µg/mL (≈ 108 µM)
- Susceptibility of Streptococcus spp., in words (Streptococcus spp.): not susceptible
- Antibacterial activity on gram-positive bacteria, in words (gram-positive bacteria [22]): inactive on many strains of gram-positive bacteria
